According to patent US7074798B2, “Xanthine derivative and DPPIV inhibitor” (Eisai Co., Ltd, priority 2002, dated 2006):
Counter-ions that a name gives are not always drawn.

System: male C57BL/6N mouse
Experiment: Effect on glucose tolerance of normal mouse (oral glucose loading)
Assay type: in vivo
Settings: 2 h, 30 min before glucose 2 g/kg, AUC0-120, 0.5% MC = 100%, NVP DPP728 10 mg/kg = 0%, lower = better, read-out: Improvement degree of glucose tolerance; for response vs control in vivo at 3 mg/kg: 3 mg/kg oral; for response vs control in vivo at 1 mg/kg: 1 mg/kg oral
Protocol: Effect on Glucose Tolerance of Normal Mouse
male C57BL/6N mouse (purchased from CHARLES RIVER JAPAN, INC.)
A suspension of the test compound and NVP DPP728 or 0.5% MC solution (solvent control group) were orally administered at a dose of 10 mL/kg, and after 30 minutes, glucose solution was orally administered at a dose of 10 mL/kg. Glucose was orally administered at a dose of 2 g/kg.
Immediately before the administration of the test substance and NVP DPP728, immediately before the administration of the glucose solution and at 30 minutes, 60 minutes, and 120 minutes after the administration, a tail vein of the mouse was injured to slightly bleed by a razor under no anesthesia. 10 μl of blood was collected and was immediately mixed with 0.6M perchloric acid (140 μl). Glucose in the supernatant obtained by centrifugation (1500 g, 10 minutes, 4° C., refrigerated centrifuge GS-6KR, Beckman Instruments, Inc.) was measured using Glucose CII-Test Wako (Wako Pure Chemical Industries, Ltd.).
Area under the curve of blood glucose level-time (AUC0-120; Area Under the Curve) from the time of administration of glucose to 120 minutes after administration was calculated for respective administration groups, i.e., 0.5% MC solution, NVP DPP728, and the test compounds. Taking the AUC0-120 of the 0.5% MC solution administration group as 100% and the AUC0-120 of NVP DPP728 (10 mg/kg) administration group as 0%, the improvement degree of the glucose tolerance of a test compound was calculated using the following formula: Improvement degree of the glucose tolerance (%)=(AUC0-120 of the test compound−AUC0-120 of the NVP DPP728 (10 mg/kg) administration group)/(AUC0-120 of the 0.5% MC solution administration group−AUC0-120 of the NVP DPP728 (10 mg/kg) administration group)×100. • The lower the % value, the greater the improvement degree of the glucose tolerance will be.

| Compound | response vs control in vivo at 3 mg/kg | response vs control in vivo at 1 mg/kg | response vs control in vivo at 0.3 mg/kg (0.3 mg/kg oral) |
| --- | --- | --- | --- |
| CC#CCn1c(N2CCNCC2)nc2c1c(=O)n(C)c(=O)n2CC(=O)OC [Example 219, [7-(2-Butynyl)-1-methyl-2,6-dioxo-8-(piperazin-1-yl)-1,2,6,7-tetrahydropurin-3-yl]acetic acid methyl ester trifluoroacetate] | -1.4% |  |  |
| CC#CCn1c(N2CCNCC2)nc2c1c(=O)n(C)c(=O)n2C1CCOC1=O (stereo not shown) [Example 263, 7-(2-Butynyl)-3-(2-oxo-tetrahydrofuran-3-yl)-1-methyl-8-(piperazin-1-yl)-3,7-dihydropurine-2,6-dione trifluoroacetate] | 16.4% |  |  |
| C=Cc1ccccc1-n1c(N2CCNCC2)nc2c1c(=O)[nH]c(=O)n2C [Example 174, 7-(2-Vinylphenyl)-3-methyl-8-(piperazin-1-yl)-3,7-dihydropurine-2,6-dione] | -9.1% | 24.3% |  |
| NC(=O)Cn1c(=O)[nH]c(=O)c2c1nc(N1CCNCC1)n2-c1ccccc1Cl [Example 194, 2-[7-(2-Chlorophenyl)-2,6-dioxo-8-(piperazin-1-yl)-1,2,6,7-tetrahydropurin-3-yl]-acetamide trifluoroacetate] | 9.9% |  |  |
| CC#CCn1c(N2CCNCC2)nc2c1c(=O)n(CC(=O)c1ccccc1)c(=O)n2C [Example 30, 7-(2-Butynyl)-3-methyl-1-(2-oxo-2-phenylethyl)-8-(piperazin-1-yl)-3,7-dihydropurine-2,6-dione trifluoroacetate] |  | -14.3% | 49.4% |
| CC#CCn1c(N2CCNCC2)nc2c1c(=O)n(C)c(=O)n2C(C)C [Example 270, 7-(2-Butynyl)-3-isopropyl-1-methyl-8-(piperazin-1-yl)-3,7-dihydropurine-2,6-dione trifluoroacetate] | 7.3% |  |  |
| CC#CCn1c(N2CCNCC2)nc2c1c(=O)n(C)c(=O)n2CC [Example 216, 7-(2-Butynyl)-3-ethyl-1-methyl-8-(piperazin-1-yl)-3,7-dihydropurine-2,6-dione trifluoroacetate] | -5% |  |  |
| COc1ccccc1-n1c(N2CCNCC2)nc2c1c(=O)n(C)c(=O)n2C [Example 123, 7-(2-Methoxyphenyl)-1,3-dimethyl-8-(piperazin-1-yl)-3,7-dihydropurine-2,6-dione trifluoroacetate] | 17.9% |  |  |
| CC#CCn1c(N2CCNCC2)nc2c1c(=O)n(C)c(=O)n2CC(=O)C(C)(C)C [Example 274, 7-(2-Butynyl)-3-(3,3-dimethyl-2-oxobutyl)-1-methyl-8-(piperazin-1-yl)-3,7-dihydropurine-2,6-dione trifluoroacetate] | 1.9% |  |  |
| COc1ccccc1-n1c(N2CCNCC2)nc2c1c(=O)n(CC#N)c(=O)n2C [Example 166, [7-(2-Methoxyphenyl)-3-methyl-2,6-dioxo-8-(piperazin-1-yl)-2,3,6,7-tetrahydropurin-1-yl]acetonitrile trifluoroacetate] | 16.1% |  |  |
| CC#CCn1c(=O)c2c(nc(N3CCNCC3)n2CC#CC)n(C)c1=O [Example 20, 1,7-Bis(2-butynyl)-3-methyl-8-(piperazin-1-yl)-3,7-dihydropurine-2,6-dione trifluoroacetate] | 5% |  |  |
| CC#CCn1c(N2CCNCC2)nc2c1c(=O)n(C)c(=O)n2CC1CCCO1 (stereo not shown) [Example 226, 7-(2-Butynyl)-3-(2-tetrahydrofuranyl)methyl-1-methyl-8-(piperazin-1-yl)-3,7-dihydropurine-2,6-dione trifluoroacetate] | -5.2% |  |  |
| CC#CCn1c(N2CCNCC2)nc2c1c(=O)n(C)c(=O)n2C1CCNC1=O (stereo not shown) [Example 284, 7-(2-Butynyl)-1-methyl-3-(2-oxopyrrolidin-3-yl)-8-(piperazin-1-yl)-3,7-dihydropurine-2,6-dione hydrochloride] | 11.3% |  |  |
| CC#CCn1c(N2CCNCC2)nc2c1c(=O)n(Cc1ccccc1C#N)c(=O)n2C [Example 39, 2-[7-(2-Butynyl)-3-methyl-2,6-dioxo-8-(piperazin-1-yl)-2,3,6,7-tetrahydropurin-1-ylmethyl]-benzonitrile trifluoroacetate] |  | 45.5% |  |
| CC#CCn1c(N2CCNCC2)nc2c1c(=O)n(C)c(=O)n2CCOCC [Example 266, 7-(2-Butynyl)-3-(2-ethoxyethyl)-1-methyl-8-(piperazin-1-yl)-3,7-dihydropurine-2,6-dione trifluoroacetate] | -2.3% |  |  |
| Cn1c(=O)[nH]c(=O)c2c1nc(N1CCNCC1)n2-c1ccccc1Cl [Example 156, 7-(2-Chlorophenyl)-3-methyl-8-(piperazin-1-yl)-3,7-dihydropurine-2,6-dione trifluoroacetate] | 0.9% |  |  |
| C#CCn1c(=O)c2c(nc(N3CCNCC3)n2CC#CC)n(C)c1=O [Example 19, 7-(2-Butynyl)-3-methyl-8-(piperazin-1-yl)-1-(2-propynyl)-3,7-dihydropurine-2,6-dione trifluoroacetate] | -13.1% |  |  |
| CC#CCn1c(N2CCNCC2)nc2c1c(=O)n(CC#N)c(=O)n2C [Example 21, [7-(2-Butynyl)-3-methyl-2,6-dioxo-8-(piperazin-1-yl)-2,3,6,7-tetrahydropurin-1-yl]acetonitrile trifluoroacetate] | 4.8% |  |  |
| CC#CCn1c(N2CCNCC2)nc2c1c(=O)n(C)c(=O)n2CC(=O)c1ccccc1 [Example 256, 7-(2-Butynyl)-3-(2-oxo-2-phenethyl)-1-methyl-8-(piperazin-1-yl)-3,7-dihydropurine-2,6-dione trifluoroacetate] | 2.4% |  |  |
| CC#CCn1c(N2CCNCC2)nc2c1c(=O)n(C)c(=O)n2C [Example 10, 7-(2-Butynyl)-1,3-dimethyl-8-(piperazin-1-yl)-3,7-dihydropurine-2,6-dione] | 0.5% |  |  |
| CC#CCn1c(N2CCNCC2)nc2c1c(=O)[nH]c(=O)n2CCOCC [Example 321, 7-(2-Butynyl)-3-(2-ethoxyethyl)-8-(piperazin-1-yl)-3,7-dihydropurine-2,6-dione trifluoroacetate] | 16.9% |  |  |
| CC#CCn1c(N2CCNCC2)nc2c1c(=O)n(CC(=O)c1ccccc1)c(=O)n2CCOCC [Example 323, 7-(2-Butynyl)-3-(2-ethoxyethyl)-1-(2-oxo-2-phenylethyl-8-(piperazin-1-yl)-3,7-dihydropurine-2,6-dione trifluoroacetate] | 0.5% |  |  |
| CC#CCn1c(N2CCNCC2)nc2c1c(=O)n(C)c(=O)n2Cc1ccccc1 [Example 218, 7-(2-Butynyl)-3-benzyl-1-methyl-8-(piperazin-1-yl)-3,7-dihydropurine-2,6-dione trifluoroacetate] | 16.8% |  |  |
| C=Cc1ccccc1-n1c(N2CCNCC2)nc2c1c(=O)n(C)c(=O)n2C [Example 147, 7-(2-Vinylphenyl)-1,3-dimethyl-8-(piperazin-1-yl)-3,7-dihydropurine-2,6-dione trifluoroacetate] | 13% |  |  |
| CC#CCn1c(N2CCNCC2)nc2c1c(=O)n(CCc1ccccc1)c(=O)n2CC(=O)OCC [Example 326, [7-(2-Butynyl)-2,6-dioxo-1-(2-phenethyl)-8-(piperazin-1-yl)-1,2,6,7-tetrahydropurin-3-yl]acetic acid ethyl ester hydrochloride] | -30.6% | -19.2% |  |
